Experimental data reported in patent publication US6875760B2 (Novo Nordisk A/S, priority 1999, dated 2005).

What follows are compounds tested against T1, human glucagon receptor (Homo sapiens, UniProt P47871) (assay: Glucagon Binding Assay (III)). Conditions: BHK cell membranes, WGA SPA beads, 125I-glucagon; read-out: Glu Bd Assay (III) IC50.
T1 construct: expressed in transfected cells; host or cells: BHK (baby hamster kidney) cells
Summary of the method: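 Membranes from BHK cells transfected with the human receptor, prepared at 4 °C, were used in a WGA-bead scintillation proximity binding format. Plates were shaken for 4 hours, left to settle 8–48 hours and then counted. Non-specific binding was defined with 500 nM glucagon.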

T1 sequence (P47871 26-477): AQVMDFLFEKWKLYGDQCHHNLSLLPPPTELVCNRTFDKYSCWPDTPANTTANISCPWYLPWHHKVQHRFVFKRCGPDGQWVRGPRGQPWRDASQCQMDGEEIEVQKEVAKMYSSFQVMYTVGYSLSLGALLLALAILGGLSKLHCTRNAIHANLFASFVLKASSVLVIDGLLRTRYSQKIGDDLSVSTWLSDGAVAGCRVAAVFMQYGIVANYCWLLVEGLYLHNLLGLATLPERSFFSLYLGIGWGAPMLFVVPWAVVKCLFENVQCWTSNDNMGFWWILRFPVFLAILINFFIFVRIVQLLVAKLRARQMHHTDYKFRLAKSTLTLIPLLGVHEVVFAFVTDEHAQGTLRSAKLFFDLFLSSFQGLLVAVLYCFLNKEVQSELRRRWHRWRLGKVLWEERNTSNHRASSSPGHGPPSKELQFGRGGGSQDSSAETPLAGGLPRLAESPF

Structure (SMILES)	IC50
CS(=O)(=O)c1ccc(NC(=O)N(Cc2ccc(C(=O)Nc3nn[nH]n3)cc2)c2ccc(C3CCCCC3)cc2)s1 [Example 320, 4-[1-(4-Cyclohexylphenyl)-3-(5-methylsulfonylthiophen-2-yl)ureidomethyl]-N-(2H-tetrazol-5-yl)benzamide]	28 nM
O=C(Nc1nn[nH]n1)c1ccc(CN(C(=O)Nc2ccc3c(c2)C(=O)N(CC2CC2)C3=O)c2ccc(C3CCCCC3)cc2)cc1 [Example 639, 4-[1-(4-Cyclohexylphenyl)-3-(N′-[cyclopropylmethyl]phthalimid-4-yl)ureidomethyl]-N-(2H-tetrazol-5-yl)benzamide]	4 nM
CC(C)(C)c1ccc(N(Cc2ccc(C(=O)Nc3nn[nH]n3)cc2)C(=O)Nc2ccc(SC(F)(F)F)cc2)cc1 [Example 332, 4-[1-(4-tert-Butylphenyl)-3-(4-trifluoromethylsulfanylphenyl)ureidomethyl]-N-(2H-tetrazol-5-yl)benzamide]	20 nM
CC(C)(C)c1ccc(N(Cc2ccc(C(=O)Nc3nn[nH]n3)cc2)C(=O)Nc2cc(Cl)cc(Cl)c2)cc1 [Example 333, 4-[1-(4-tert-Butylphenyl)-3-(3,5-dichlorophenyl)ureidomethyl]-N-(2H-tetrazol-5-yl)benzamide]	26 nM
O=C(Nc1nn[nH]n1)c1ccc(CN(C(=O)c2cccc(Cl)c2)c2ccc(C3=CCCCC3)cc2)cc1 [Example 495, 4-({(4-Cyclohex-1-enylphenyl)-(3-chlorobenzoyl)amino}methyl)-N-(2H-tetrazol-5-yl)benzamide]	306 nM
CCCCNC(=O)c1cccc(NC(=O)N(Cc2ccc(C(=O)Nc3nn[nH]n3)cc2)c2ccc(C3CCCCC3)cc2)c1 [Example 465, N-Butyl-3-{3-(4-cyclohexylphenyl)-3-[4-(2H-tetrazol-5-ylcarbamoyl)benzyl]ureido}benzamide]	606 nM
CCCCOC(=O)c1ccc(NC(=O)N(CCc2ccc(Cl)cc2)Cc2ccc(C(=O)NCCC(=O)O)cc2)cc1 [Example 51, 4-{3-[4-(2-Carboxyethylcarbamoyl)benzyl]-3-[2-(4-chlorophenyl)ethyl]ureido}benzoic acid butyl ester]	721 nM
CC(C)(C)C1CCC(N(Cc2ccc(C(=O)NCCC(=O)O)cc2)C(=O)Nc2ccc(Cl)c(Cl)c2)CC1 (stereo not drawn) [Example 16, 3-{4-[1-(4-tert-Butylcyclohexyl)-3-(3,4-dichlorophenyl)ureidomethyl]benzoylamino}propionic acid]	39 nM
O=C(Nc1nn[nH]n1)c1ccc(CN(C(=O)Nc2cccc(S(=O)(=O)C3CCCC3)c2)c2ccc(C3CCCCC3)cc2)cc1 [Example 471]	252 nM
CC(C)(C)c1ccc(N(Cc2ccc(C(=O)Nc3nn[nH]n3)cc2)C(=O)c2cc3cc(OC(F)(F)F)ccc3[nH]2)cc1 [Example 559, 5-Trifluoromethoxy-1H-indole-2-carboxylic acid (4-tert-butylphenyl)-[4-(2H-tetrazol-5-ylcarbamoyl)benzyl]amide]	1090 nM

Further lines, results first:

IC50	Structure (SMILES)
56 nM	CC(C)(C)[C@H]1CC[C@H](N(Cc2ccc(C(=O)NCCC(=O)O)cc2)C(=O)Nc2ccc(OC(F)(F)F)c(C#N)c2)CC1 [Example 251, 3-{4-[1-(trans-4-tert-Butylcyclohexyl)-3-(3-cyano-4-trifluoromethoxyphenyl)ureidomethyl]benzoylamino}propionic acid]
136 nM	CC(C)(C)C1CCC(N(Cc2ccc(C(=O)Nc3nn[nH]n3)cc2)C(=O)c2cc3cc(Cl)ccc3o2)CC1 (stereo not drawn) [Example 490, 5-Chlorobenzofuran-2-carboxylic acid (4-tert-butylcyclohexyl)-[4-(2H-tetrazol-5-ylcarbamoyl)benzyl]amide]
620 nM	CC(C)(C)C1CCC(N(Cc2ccc(C(=O)Nc3nn[nH]n3)cc2)C(=O)Cc2ccc(S(C)(=O)=O)cc2)CC1 (stereo not drawn) [Example 517, 4-({(4-tert-Butylcyclohexyl)-[2-(4-methylsulfonylphenyl)acetyl]amino}methyl)-N-(2H-tetrazol-5-yl)benzamide]
26 nM	CC(C)(C)[C@H]1CC[C@@H](N(Cc2ccc(C(=O)Nc3nn[nH]n3)cc2)C(=O)Nc2cc(C(F)(F)F)cc(C(F)(F)F)c2)CC1 [Example 603, 4-[3-(3,5-Bis(trifluoromethyl)phenyl)-1-(cis-4-tert-butylcyclohexyl)ureidomethyl]-N-(2H-tetrazol-5-yl)benzamide]
180 nM	CC(C)(C)C1CCC(N(Cc2ccc(C(=O)Nc3nn[nH]n3)cc2)C(=O)C/C=C/c2ccccc2)CC1 (stereo not drawn) [Example 538, 4-{[(4-tert-Butylcyclohexyl)-(4-phenylbut-3-enoyl)amino]methyl}-N-(2H-tetrazol-5-yl)benzamide]
277 nM	CC(C)(C)C1CCC(N(Cc2ccc(C(=O)Nc3nn[nH]n3)cc2)C(=O)NCCc2ccccc2)CC1 (stereo not drawn) [Example 324, 4-[1-(4-tert-Butylcyclohexyl)-3-phenethylureidomethyl]-N-(2H-tetrazol-5-yl)benzamide]
137 nM	CCCC1(CCC)CCC(N(Cc2ccc(C(=O)NCCC(=O)O)cc2)C(=O)Nc2ccc(OC(F)(F)F)cc2)CC1 [Example 88, 3-{4-[1-(4,4-Dipropylcyclohexyl)-3-(4-trifluoromethoxyphenyl)ureidomethyl]benzoylamino}propionic acid]
891 nM	CC(C)(C)C1CCC(N(Cc2ccc(C(=O)NCCC(=O)O)cc2)C(=O)Nc2ccc([N+](=O)[O-])cc2)CC1 (stereo not drawn) [Example 67, 3-{4-[1-(4-tert-Butylcyclohexyl)-3-(4-nitrophenyl)ureidomethyl]benzoylamino}propionic acid]
83 nM	COC(=O)CCNC(=O)c1ccc(CN(C(=O)Nc2ccc(OC(F)(F)F)cc2)[C@H]2CC[C@H](C(C)(C)C)CC2)cc1 [Example 98, 3-{4-[1-(trans-4-tert-Butylcyclohexyl)-3-(4-trifluoromethoxyphenyl)ureidomethyl]benzoylamino}propionic acid methyl ester]
19 nM	CCCCN1C(=O)c2ccc(NC(=O)N(Cc3ccc(C(=O)Nc4nn[nH]n4)cc3)C3CCC(C(C)(C)C)CC3)cc2C1=O (stereo not drawn) [Example 633, 4-[1-(4-tert-Butylcyclohexyl)-3-(N′-butylphthalimid-4-yl)ureidomethyl]-N-(2H-tetrazol-5-yl)benzamide]
86 nM	CC(C)(C)[C@H]1CC[C@H](N(Cc2ccc(C(=O)NCCC(=O)O)cc2)NC(=O)c2ccc(OC(F)(F)F)cc2)CC1 [Example 429, 3-{4-[N-(trans-4-tert-Butylcyclohexyl)-N′-(4-trifluoromethoxybenzoyl)hydrazinomethyl]benzoylamino}propionic acid]
151 nM	CCCCC(CC)CN(Cc1ccc(C(=O)NCCC(=O)O)cc1)C(=O)Nc1ccc(C(F)(F)F)cc1 (stereo not drawn) [Example 36, 3-{4-[1-(2-Ethylhexyl)-3-(4-trifluoromethylphenyl)ureidomethyl]benzoylamino}propionic acid]
1890 nM	CCCCNS(=O)(=O)c1ccc(NC(=O)N(Cc2ccc(C(=O)NCCC(=O)O)cc2)[C@H]2CC[C@H](C(C)(C)C)CC2)cc1 [Example 239, 3-{4-[1-(trans-4-tert-Butylcyclohexyl)-3-(4-butylsulfamoylphenyl)ureidomethyl]benzoylamino}propionic acid]

Same assay, conditions: Glu Bd Assay (III) IC50 (nM), BHK cell membranes, WGA SPA beads, 125I-glucagon

Structure (SMILES)	IC50
CC(C)(C)[C@H]1CC[C@H](N(Cc2ccc(C(=O)NCCC(=O)O)cc2)C(=O)Nc2ccc(C#N)cc2OC(F)(F)F)CC1 [Example 247, 3-{4-[1-(trans-4-tert-Butylcyclohexyl)-3-(4-cyano-2-trifluoromethoxyphenyl)ureidomethyl]benzoylamino}propionic acid]	215 nM
